Assay results published in patent publication US11345694B2, “Antibacterial compounds” (DISCUVA LTD., priority 2017, dated 2022).
In brackets after ≈: the same amount, converted by molar mass.

Experiments:
[1] = tested on: K. pneumoniae NCTC 13438 (KP1); test: MIC broth microdilution; format: cell-based, Klebsiella pneumoniae; conditions: Klebsiella pneumoniae, NCTC13438
Protocol: (§1) Minimum Inhibitory Concentrations (MICs) versus planktonic bacteria are determined by the broth microdilution procedure according to the guidelines of the Clinical and Laboratory Standards Institute (Clinical and Laboratory Standards Institute. Methods for Dilution Antimicrobial Susceptibility Tests for Bacteria That Grow Aerobically; Approved Standard-tenth Edition. CLSI document M07-A10, 2015). The broth dilution method involves a two-fold serial dilution of compounds in 96-well microtitre plates, giving a final concentration range of 0.39-200 μM and a maximum final concentration of 2% DMSO. The bacterial strains tested include Escherichia coli K12 (EC), E. coli NCTC 13441 (UPEC), Staphylococcus aureus ATCC 35556 (SA), Acinetobacter baumannii ATCC 17978 (AB), Pseudomonas aeruginosa ATCC 33359 (PA), Enterobacter cloacae DSM 30054 (Ed), Serratia marcescens SL1344 (Sm), Salmonella typhimurium XNAA5 (St), Klebsiella pneumoniae ATCC 10031 (KP2), K. pneumoniae NCTC 13438 (KP1), K. pneumoniae ATCC 700603 (KP3), Klebsiella pneumoniae ATCC 51504 (KP4), K. pneumoniae H154680676 (KP5), K. pneumoniae H154020667 (KP6), K. pneumoniae H154640784 (KP7), K. pneumoniae H154600588 (KP8), K. pneumoniae H154300688 (KP9), K. pneumoniae H151440671 (KP10). Strains are grown in cation-adjusted Müller-Hinton broth or on Luria Bertoni agar at 37° C. in an ambient atmosphere. The MIC is determined as the lowest concentration of compound that inhibits growth following a 20-24 hour incubation period.

[2] = tested on: human hepatocarcinoma cell line ATCC HB-8065 (HepG2); test: Human cell viability (CellTiter-Glo); format: cell-based; conditions: Homo sapiens; HepG2 cells, 24 h incubation, CellTiter-Glo luminescence, 0.2-100 μM; read-out: IC50 values against the HepG2 cell line
Protocol: Compounds are assessed for potential non-specific cytotoxic effects against the human hepatocarcinoma cell line ATCC HB-8065 (HepG2). HepG2 cells are seeded at 20,000 cells/well in 96-well microtitre plates in minimal essential medium (MEM) supplemented with a final concentration of 10% FBS. After 24 h, compound dilutions are prepared in MEM supplemented with a final concentration of 1% FBS, and added to the cells. Compounds are tested in two-fold serial dilutions over a final concentration range of 0.2-100 μM in a final DMSO concentration of 1% vol/vol. Thioridazine is used as a positive control. Cells are incubated with compound at 37° C. and 5% CO2 for a further 24 h, after which time the CellTiter-Glo reagent (Promega) is added. Luminescence is measured on a Perkin Elmer Envision plate reader. Data are analysed using a 4 parameter logistic regression to determine the concentration of compound that inhibits cell viability by fifty percent (IC50).

[3] = tested on: Acinetobacter baumannii ATCC 17978 (AB); test: MIC broth microdilution; format: cell-based; conditions: ATCC17978
Protocol: as §1

[4] = tested on: Staphylococcus aureus ATCC 35556 (SA); test: MIC broth microdilution; format: cell-based; conditions: ATCC35556
Protocol: as §1

[5] = tested on: Escherichia coli K12 (EC); test: MIC broth microdilution; format: cell-based
Protocol: as §1

[6] = tested on: Pseudomonas aeruginosa ATCC 33359 (PA); test: MIC broth microdilution; format: cell-based; conditions: ATCC33359
Protocol: as §1

[7] = tested on: Klebsiella pneumoniae ATCC 10031 (KP2); test: MIC broth microdilution; format: cell-based; conditions: ATCC10031
Protocol: as §1

[8] = tested on: E. coli NCTC 13441 (UPEC); test: MIC broth microdilution; format: cell-based, Escherichia coli; conditions: Escherichia coli, NCTC13441
Protocol: as §1

| SMILES | MIC [1] | IC50 [2] | MIC [3] | MIC [4] | MIC [5] | MIC [6] | MIC [7] | MIC [8] |
| --- | --- | --- | --- | --- | --- | --- | --- | --- |
| Cc1cc(-c2[nH]c(N)nc2-c2ccc3oc(C)nc3c2)ccn1 [Example 37, 4-(2-Methylbenzo[d]oxazol-5-yl)-5-(2-methylpyridin-4-yl)-1H-imidazol-2-amine] | 10 to 100 µM (≈ 3.05 to 30.5 µg/mL) | > 100 µM | > 100 µM | > 100 µM | 1 to 10 µM (≈ 0.305 to 3.05 µg/mL) | > 100 µM | ≤ 1 µM | 1 to 10 µM (≈ 0.305 to 3.05 µg/mL) |
| Nc1nc(-c2ccc3c(c2)NCCO3)c(-c2ccncc2)[nH]1 [Example 39, 4-(3,4-Dihydro-2H-benzo[b][1,4]oxazin-6-yl)-5-(pyridin-4-yl)-1H-imidazol-2-amine] | 10 to 100 µM (≈ 2.93 to 29.3 µg/mL) | > 100 µM | > 100 µM | > 100 µM | ≤ 1 µM | > 100 µM | ≤ 1 µM | ≤ 1 µM |
| Nc1cc(-c2[nH]c(N)nc2-c2ccc3c(c2)NCCO3)ccn1 [Example 42, 4-(2-Amino-4-(3,4-dihydro-2H-benzo[b][1,4]oxazin-6-yl)-1H-imidazol-5-yl)pyridin-2-amine] | 10 to 100 µM (≈ 3.08 to 30.8 µg/mL) | > 100 µM | > 100 µM | > 100 µM | 1 to 10 µM (≈ 0.308 to 3.08 µg/mL) | > 100 µM | ≤ 1 µM | 1 to 10 µM (≈ 0.308 to 3.08 µg/mL) |
| Nc1nc(-c2ccc3c(c2)NCCO3)c(-c2ccnc(C(F)(F)F)c2)[nH]1 [Example 46, 4-(3,4-Dihydro-2H-benzo[b][1,4]oxazin-6-yl)-5-(2-(trifluoromethyl)pyridin-4-yl)-1H-imidazol-2-amine] | 10 to 100 µM (≈ 3.61 to 36.1 µg/mL) | > 100 µM | > 100 µM | > 100 µM | 1 to 10 µM (≈ 0.361 to 3.61 µg/mL) | > 100 µM | ≤ 1 µM | 1 to 10 µM (≈ 0.361 to 3.61 µg/mL) |
| Nc1nc(-c2ccc3c(c2)NCCO3)c(-c2ccnc(F)c2)[nH]1 [Example 47, 4-(3,4-Dihydro-2H-benzo[b][1,4]oxazin-6-yl)-5-(2-fluoropyridin-4-yl)-1H-imidazol-2-amine] | 10 to 100 µM (≈ 3.11 to 31.1 µg/mL) | > 100 µM | > 100 µM | > 100 µM | 1 to 10 µM (≈ 0.311 to 3.11 µg/mL) | > 100 µM | ≤ 1 µM | 1 to 10 µM (≈ 0.311 to 3.11 µg/mL) |
| Cc1cc(-c2[nH]c(N)nc2-c2ccc3c(c2)NCCCO3)ccn1 [Example 48, 5-(2-Methylpyridin-4-yl)-4-(2,3,4,5-tetrahydrobenzo[b][1,4]oxazepin-7-yl)-1H-imidazol-2-amine] | 10 to 100 µM (≈ 3.21 to 32.1 µg/mL) | > 100 µM | > 100 µM | > 100 µM | 1 to 10 µM (≈ 0.321 to 3.21 µg/mL) | > 100 µM | ≤ 1 µM | 1 to 10 µM (≈ 0.321 to 3.21 µg/mL) |
| Cc1cc(-c2[nH]c(N)nc2-c2cc(F)c3c(c2)NC(=O)CO3)ccn1 [Example 50, 6-(2-Amino-5-(2-methylpyridin-4-yl)-1H-imidazol-4-yl)-8-fluoro-2H-benzo[b][1,4]oxazin-3(4H)-one] | 10 to 100 µM (≈ 3.39 to 33.9 µg/mL) | > 100 µM | > 100 µM | > 100 µM | 1 to 10 µM (≈ 0.339 to 3.39 µg/mL) | > 100 µM | ≤ 1 µM | 1 to 10 µM (≈ 0.339 to 3.39 µg/mL) |
| Cc1cc(-c2[nH]c(N)nc2-c2ccc3c(c2)NC(=O)CO3)ccn1 [Example 51, 6-(2-Amino-5-(2-methylpyridin-4-yl)-1H-imidazol-4-yl)-2H-benzo[b][1,4]oxazin-3(4H)-one] | 10 to 100 µM (≈ 3.21 to 32.1 µg/mL) | > 100 µM | > 100 µM | > 100 µM | 1 to 10 µM (≈ 0.321 to 3.21 µg/mL) | > 100 µM | ≤ 1 µM | 1 to 10 µM (≈ 0.321 to 3.21 µg/mL) |
| Cc1cc(-c2[nH]c(N)nc2-c2ccc3c(c2)NCC(=O)O3)ccn1 [Example 53, 6-(2-Amino-5-(2-methylpyridin-4-yl)-1H-imidazol-4-yl)-3,4-dihydro-2H-benzo[b][1,4]oxazin-2-one] | 10 to 100 µM (≈ 3.21 to 32.1 µg/mL) | > 100 µM | > 100 µM | > 100 µM | 1 to 10 µM (≈ 0.321 to 3.21 µg/mL) | > 100 µM | ≤ 1 µM | 1 to 10 µM (≈ 0.321 to 3.21 µg/mL) |
| Cc1cc(-c2[nH]c(N)nc2-c2cc3c(cc2F)OCC(=O)N3)ccn1 [Example 54, 6-(2-Amino-5-(2-methylpyridin-4-yl)-1H-imidazol-4-yl)-7-fluoro-2H-benzo[b][1,4]oxazin-3(4H)-one] | 10 to 100 µM (≈ 3.39 to 33.9 µg/mL) | > 100 µM | > 100 µM | > 100 µM | 1 to 10 µM (≈ 0.339 to 3.39 µg/mL) | > 100 µM | ≤ 1 µM | 1 to 10 µM (≈ 0.339 to 3.39 µg/mL) |
| Cc1cc(-c2[nH]c(N)nc2-c2cc3c(cc2F)OCCO3)ccn1 [Example 59, 4-(7-Fluoro-2,3-dihydrobenzo[b][1,4]dioxin-6-yl)-5-(2-methylpyridin-4-yl)-1H-imidazol-2-amine] | 10 to 100 µM (≈ 3.26 to 32.6 µg/mL) | > 100 µM | > 100 µM | > 100 µM | ≤ 1 µM | > 100 µM | ≤ 1 µM | ≤ 1 µM |

Further lines, results first:

| MIC [1] | IC50 [2] | MIC [3] | MIC [4] | MIC [5] | MIC [6] | MIC [7] | MIC [8] | SMILES |
| --- | --- | --- | --- | --- | --- | --- | --- | --- |
| 10 to 100 µM (≈ 3.35 to 33.5 µg/mL) | > 100 µM | > 100 µM | > 100 µM | 1 to 10 µM (≈ 0.335 to 3.35 µg/mL) | > 100 µM | ≤ 1 µM | 1 to 10 µM (≈ 0.335 to 3.35 µg/mL) | Cc1cc(-c2[nH]c(N)nc2-c2ccc3c(c2)NC(=O)C(C)O3)ccn1 (stereo not drawn) [Example 33, 6-(2-Amino-5-(2-methylpyridin-4-yl)-1H-imidazol-4-yl)-2-methyl-2H-benzo[b][1,4]oxazin-3(4H)-one] |
| 1 to 10 µM (≈ 0.321 to 3.21 µg/mL) | > 100 µM | > 100 µM | > 100 µM | 1 to 10 µM (≈ 0.321 to 3.21 µg/mL) | > 100 µM | ≤ 1 µM | 1 to 10 µM (≈ 0.321 to 3.21 µg/mL) | Cc1cc(-c2[nH]c(N)nc2-c2ccc3c(c2)NCC(C)O3)ccn1 (stereo not drawn) [Example 34, 4-(2-Methyl-3,4-dihydro-2H-benzo[b][1,4]oxazin-6-yl)-5-(2-methylpyridin-4-yl)-1H-imidazol-2-amine] |
| 10 to 100 µM (≈ 3.05 to 30.5 µg/mL) | > 100 µM | > 100 µM | > 100 µM | 1 to 10 µM (≈ 0.305 to 3.05 µg/mL) | > 100 µM | ≤ 1 µM | 1 to 10 µM (≈ 0.305 to 3.05 µg/mL) | Cc1cc(-c2[nH]c(N)nc2-c2ccc(OCC#N)cc2)ccn1 [Example 35, 2-(4-(2-Amino-5-(2-methylpyridin-4-yl)-1H-imidazol-4-yl)phenoxy)acetonitrile] |
| 1 to 10 µM (≈ 0.321 to 3.21 µg/mL) | > 100 µM | > 100 µM | > 100 µM | 1 to 10 µM (≈ 0.321 to 3.21 µg/mL) | > 100 µM | ≤ 1 µM | ≤ 1 µM | Cc1cc(-c2[nH]c(N)nc2-c2ccc3c(c2)NCCO3)cc(C)n1 [Example 36, 4-(3,4-Dihydro-2H-benzo[b][1,4]oxazin-6-yl)-5-(2,6-dimethylpyridin-4-yl)-1H-imidazol-2-amine] |
| 1 to 10 µM (≈ 0.278 to 2.78 µg/mL) | > 100 µM | > 100 µM | > 100 µM | ≤ 1 µM | > 100 µM | ≤ 1 µM | ≤ 1 µM | Nc1nc(-c2ccc3c(c2)CCO3)c(-c2ccncc2)[nH]1 [Example 38, 4-(2,3-Dihydrobenzofuran-5-yl)-5-(pyridin-4-yl)-1H-imidazol-2-amine] |
| 1 to 10 µM (≈ 0.322 to 3.22 µg/mL) | > 100 µM | > 100 µM | > 100 µM | 1 to 10 µM (≈ 0.322 to 3.22 µg/mL) | > 100 µM | ≤ 1 µM | ≤ 1 µM | CNc1cc(-c2[nH]c(N)nc2-c2ccc3c(c2)NCCO3)ccn1 [Example 40, 4-(2-Amino-4-(3,4-dihydro-2H-benzo[b][1,4]oxazin-6-yl)-1H-imidazol-5-yl)-N-methylpyridin-2-amine] |
| 1 to 10 µM (≈ 0.321 to 3.21 µg/mL) | > 100 µM | > 100 µM | > 100 µM | 1 to 10 µM (≈ 0.321 to 3.21 µg/mL) | > 100 µM | ≤ 1 µM | 1 to 10 µM (≈ 0.321 to 3.21 µg/mL) | Cc1cc(-c2[nH]c(N)nc2-c2ccc3c(c2)N(C)CCO3)ccn1 [Example 44, 4-(4-Methyl-3,4-dihydro-2H-benzo[b][1,4]oxazin-6-yl)-5-(2-methylpyridin-4-yl)-1H-imidazol-2-amine] |
